Among the data in ChEMBL document CHEMBL1132355, “Novel arylpyrazino[2,3-c][1,2,6]thiadiazine 2,2-dioxides as platelet aggregation inhibitors. 2. Optimization by quantitative structure-activity relationships” (J Med Chem, 1999) are EC100 values, retold here.

The nature of the test: Inhibition of platelet aggregation (rabbit platelet-rich plasma),induced by arachidonic acid, (100% inhibitory response). The conditions noted are these: Oryctolagus cuniculus.
For the compound `CCN1c2nc(-c3ccccc3)c(C)nc2C(N)=NS1(=O)=O`, the EC100 is 1 µg/mL.
With `CCN1c2nc(-c3ccccc3)c(Cl)nc2C(N)=NS1(=O)=O`, the EC100 worked out at 10 µg/mL.
With `CCOc1nc2c(nc1-c1ccc(Cl)cc1)C(N)=NS(=O)(=O)N2CC`, the EC100 came out at 10 µg/mL.
With `CCN1c2nc(C)c(-c3ccccc3)nc2C(N)=NS1(=O)=O` the figure was 1 µg/mL; with `CN1c2ncc(-c3ccccc3)nc2C(N)=NS1(=O)=O`, 0.3 µg/mL.
With `NC1=NS(=O)(=O)N(Cc2ccccc2)c2nc(-c3ccccc3)c(-c3ccccc3)nc21` the figure was 3 µg/mL; with `CN1c2ncc(-c3ccccc3F)nc2C(N)=NS1(=O)=O`, 0.03 µg/mL; with `CN1c2nc(-c3ccccn3)c(-c3ccccn3)nc2C(N)=NS1(=O)=O`, 3 µg/mL.
For `CN1c2nc(-c3ccc(Br)cc3)c(-c3ccc(Br)cc3)nc2C(N)=NS1(=O)=O`, the EC100 came to 1 µg/mL.
As to `Cc1ccc(-c2cnc3c(n2)N(C)S(=O)(=O)N=C3N)cc1`, the EC100 is > 10 µg/mL.
With `CCN1c2nc(-c3ccc(Cl)cc3)c(-c3ccc(Cl)cc3)nc2C(N)=NS1(=O)=O` the figure was 3 µg/mL; with `CCOC(=O)CN1c2nc(-c3ccccc3)cnc2C(N)=NS1(=O)=O`, > 10 µg/mL.
With `CCN1c2nc(-c3cccs3)c(-c3cccs3)nc2C(N)=NS1(=O)=O` the figure was 3 µg/mL; with `CN1c2nc(-c3ccco3)c(-c3ccco3)nc2C(N)=NS1(=O)=O`, 1 µg/mL.
In the case of `CCN1c2nc(-c3ccccc3)c(Br)nc2C(N)=NS1(=O)=O` it was 1 µg/mL.
Take `CCOC(=O)CN1c2nc(-c3ccccc3)c(-c3ccccc3)nc2C(N)=NS1(=O)=O`: the EC100 is 0.1 µg/mL.
With `CCOc1nc2c(nc1-c1ccccc1)C(N)=NS(=O)(=O)N2C` the figure was 0.3 µg/mL.
As to `COc1nc2c(nc1-c1ccccc1)C(N)=NS(=O)(=O)N2C`, the EC100 is 0.1 µg/mL.
With `CCN1c2ncc(-c3ccccc3)nc2C(N)=NS1(=O)=O` the figure was 1 µg/mL; with `CC(C)(C)OC(=O)CN1c2nc(-c3ccccc3)c(-c3ccccc3)nc2C(N)=NS1(=O)=O`, 1 µg/mL.
On to `CCN1c2nc(-c3ccccc3)c(-c3ccccc3)nc2C(N)=NS1(=O)=O`, for which the EC100 was determined as 0.3 µg/mL.
With `CN1c2nc(-c3ccc(F)cc3)c(-c3ccc(F)cc3)nc2C(N)=NS1(=O)=O` the figure was 0.3 µg/mL; with `COc1ccc(-c2nc3c(nc2-c2ccc(OC)cc2)N(C)S(=O)(=O)N=C3N)cc1`, 0.001 µg/mL.
With `CCN1c2nc(-c3ccccc3)cnc2C(N)=NS1(=O)=O` the figure was > 10 µg/mL; with `NC(=O)CN1c2nc(-c3ccccc3)c(-c3ccccc3)nc2C(N)=NS1(=O)=O`, 3 µg/mL; with `CCOC(=O)CN1c2nc(-c3ccccc3)c(Br)nc2C(N)=NS1(=O)=O`, 10 µg/mL.
In the case of `COc1cccc(-c2nc3c(nc2-c2cccc(OC)c2)N(C)S(=O)(=O)N=C3N)c1` it was > 10 µg/mL.
